Data as given in the supplement of paper PMC10307832.

Experiments:
Test in all cases: relative viability (nuclei count vs DMSO), 5 days (fraction); higher = more cells survive
[1] = compound: Cn1nnc2c(C(N)=O)ncn2c1=O [Temozolomide] + Nc1nc2[nH]cc(CCc3ccc(C(=O)N[C@@H](CCC(=O)O)C(=O)O)cc3)c2c(=O)[nH]1 [Pemetrexed] (partner 0.2 µM)
In short: (§1)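 Five library-drug doses in √10 steps were combined with a fixed anchor-drug dose, or a single drug was given alone, by pin tool to lung cancer cell lines in 1536-well plates the day after seeding. Nuclei were stained and counted after 5 days. Relative viability is the nuclei count in treated wells over that in vehicle wells, taken as the median of duplicate plates.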

[2] = compound: Cn1nnc2c(C(N)=O)ncn2c1=O [Temozolomide] + C[C@@H](Oc1cc(-c2cnn(C3CCNCC3)c2)cnc1N)c1c(Cl)ccc(F)c1Cl [Crizotinib] (partner 1 µM)
In short: as §1

AZD5582 + Linsitinib = compound: C[C@@H](C(=O)N[C@@H](C1CCCCC1)C(=O)N2CCC[C@H]2C(=O)N[C@@H]3[C@@H](CC4=CC=CC=C34)OCC#CC#CCO[C@@H]5CC6=CC=CC=C6[C@@H]5NC(=O)[C@@H]7CCCN7C(=O)[C@H](C8CCCCC8)NC(=O)[C@H](C)NC)NC [AZD5582] + C[C@]1(O)C[C@@H](c2nc(-c3ccc4ccc(-c5ccccc5)nc4c3)c3c(N)nccn32)C1 [Linsitinib] (partner 1 µM)
In short: as §1

Temozolomide + Olaparib = compound: Cn1nnc2c(C(N)=O)ncn2c1=O [Temozolomide] + O=C(c1cc(Cc2n[nH]c(=O)c3ccccc23)ccc1F)N1CCN(C(=O)C2CC2)CC1 [Olaparib] (partner 8 µM)
In short: as §1

Cell Line | relative viability ([1]; first compound 0.2 µM) | relative viability ([1]; first compound 0.6325 µM) | relative viability ([1]; first compound 2 µM) | relative viability ([1]; first compound 6.325 µM) | relative viability ([1]; first compound 20 µM) | relative viability ([2]; first compound 0.2 µM) | relative viability ([2]; first compound 0.6325 µM) | relative viability ([2]; first compound 2 µM) | relative viability ([2]; first compound 6.325 µM) | relative viability ([2]; first compound 20 µM) | relative viability (AZD5582 + Linsitinib; first compound 0.001581 µM) | relative viability (AZD5582 + Linsitinib; first compound 0.005 µM) | relative viability (AZD5582 + Linsitinib; first compound 0.01581 µM) | relative viability (AZD5582 + Linsitinib; first compound 0.05 µM) | relative viability (Temozolomide + Olaparib; first compound 0.2 µM) | relative viability (Temozolomide + Olaparib; first compound 0.6325 µM) | relative viability (Temozolomide + Olaparib; first compound 2 µM) | relative viability (Temozolomide + Olaparib; first compound 6.325 µM) | relative viability (Temozolomide + Olaparib; first compound 20 µM)
NCI-H1651 | 0.58 | 0.588 | 0.591 | 0.6 | 0.617 | 0.8 | 0.869 | 0.818 | 0.85 | 0.864 | 0.894 | 1.06 | 1.01 | 1.21 | 0.187 | 0.177 | 0.173 | 0.145 | 0.0979
NCI-H2347 | 0.466 | 0.447 | 0.429 | 0.426 | 0.461 | 0.695 | 0.712 | 0.715 | 0.651 | 0.645 | 0.914 | 1.08 | 0.972 | 0.952 | 0.59 | 0.538 | 0.614 | 0.603 | 0.472
HOP-62 | 0.302 | 0.264 | 0.287 | 0.314 | 0.294 | 1.12 | 0.991 | 1.05 | 0.801 | 0.965 | 0.654 | 1 | 0.966 | 1.09 | 0.407 | 0.31 | 0.429 | 0.277 | 0.129
NCI-H1993 | 0.517 | 0.669 | 0.598 | 0.569 | 0.525 | 0.779 | 0.85 | 0.876 | 0.94 | 0.703 | 0.688 | 0.657 | 0.724 | 0.705 | 0.913 | 1.34 | 1.2 | 0.94 | 0.836
HCC-15 | 0.24 | 0.221 | 0.227 | 0.207 | 0.228 | 0.872 | 0.918 | 0.807 | 0.805 | 0.905 | 0.832 | 0.779 | 0.91 | 0.721 | 0.791 | 0.767 | 0.684 | 0.637 | 0.589
NCI-H1437 | 0.31 | 0.317 | 0.376 | 0.316 | 0.277 | 0.94 | 1.03 | 0.968 | 0.995 | 0.999 | 0.862 | 0.95 | 0.976 | 1.01 | 0.614 | 0.606 | 0.632 | 0.583 | 0.523
